Source: article PMC5769128, “Human UDP-Glucuronosyltransferase 2B4 and 2B7 Are Responsible for Naftopidil Glucuronidation in Vitro” (Frontiers in Pharmacology, 2018)

Key:
[1] = Kinetics of NAF enantiomer glucuronidation by human kidney microsomes; format: in vitro ADME; details: human, human kidney microsomes, pH 7.5; NAF glucuronidation by HKM
Protocol: (§1) All glucuronidation assays were conducted in an incubation volume of 200 μL. Incubations were performed at 37°C in 50 mM Tris–HCl buffer (pH 7.5) with 10 mM magnesium chloride, 1 mg protein/mL of enzyme (microsomes and recombinant human UGTs), alamethicin (100 μg of alamethicin/mg microsomal protein), and NAF enantiomers (2.5–80 μM). The reaction was initiated by the addition of UDPGA (5 mM) and incubated at 37°C in a shaking water bath for 45 min. The reaction was terminated by the addition of 200 μL of ice-cold acetonitrile containing the IS (1 μM) and then centrifuged at 5000 ×g for 10 min at 4°C. The supernatant fraction was injected into the RRLC-MS/MS apparatus. Protein concentration (0.5–2 mg/mL) and incubation time (15–180 min) were optimized in preliminary studies to be within initial linear rate conditions.
(§2) Kinetic parameters were assessed in the HLM, RLM, HKM, RKM, and recombinant human UGTs (UGT2B4, 2B7, and 1A9).

[2] = test system: human kidney microsomes (HKM); assay: as above; format: in vitro ADME
Protocol: as §1, §2

recombinant human UGT1A6 = target: T1, recombinant human UGT1A6 (Homo sapiens, UniProt P19224); assay: UGT reaction screening of NAF enantiomers, UGT1A6; details: 10 μM substrate, 45 min
T1 sequence (P19224 27-532): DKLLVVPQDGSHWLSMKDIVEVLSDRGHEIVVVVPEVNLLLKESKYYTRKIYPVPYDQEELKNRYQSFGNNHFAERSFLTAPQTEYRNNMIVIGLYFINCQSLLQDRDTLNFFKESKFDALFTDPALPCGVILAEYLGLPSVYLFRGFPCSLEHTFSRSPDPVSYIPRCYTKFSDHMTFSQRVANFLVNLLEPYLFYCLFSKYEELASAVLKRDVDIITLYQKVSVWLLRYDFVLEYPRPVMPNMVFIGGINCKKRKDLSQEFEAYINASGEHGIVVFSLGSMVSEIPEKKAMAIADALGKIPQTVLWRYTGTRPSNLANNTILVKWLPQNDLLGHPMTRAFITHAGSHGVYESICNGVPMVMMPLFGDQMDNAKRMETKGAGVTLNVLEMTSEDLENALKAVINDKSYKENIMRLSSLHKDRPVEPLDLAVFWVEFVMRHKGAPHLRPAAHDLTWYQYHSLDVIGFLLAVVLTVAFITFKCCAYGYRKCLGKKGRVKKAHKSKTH

UGT2B7 [3] = target: T2, UGT2B7 (Homo sapiens, UniProt P16662); assay: Kinetics of NAF enantiomer glucuronidation by recombinant UGT2B7; format: in vitro ADME; design: purchased BD Gentest
T2 sequence (P16662 24-529): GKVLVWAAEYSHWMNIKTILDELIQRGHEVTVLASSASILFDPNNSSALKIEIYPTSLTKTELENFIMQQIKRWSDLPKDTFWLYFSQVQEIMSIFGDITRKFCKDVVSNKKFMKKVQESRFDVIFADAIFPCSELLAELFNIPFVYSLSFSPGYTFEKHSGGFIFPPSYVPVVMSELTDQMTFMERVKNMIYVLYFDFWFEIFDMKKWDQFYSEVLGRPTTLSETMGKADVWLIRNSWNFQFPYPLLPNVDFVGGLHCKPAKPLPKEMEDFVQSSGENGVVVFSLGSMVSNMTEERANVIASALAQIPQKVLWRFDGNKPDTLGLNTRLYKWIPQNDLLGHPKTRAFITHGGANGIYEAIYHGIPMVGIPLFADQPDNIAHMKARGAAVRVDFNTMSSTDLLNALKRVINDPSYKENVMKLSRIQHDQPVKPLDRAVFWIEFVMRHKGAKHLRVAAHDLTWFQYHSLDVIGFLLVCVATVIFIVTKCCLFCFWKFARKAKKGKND
Protocol: as §1, §2

UGT2B7 [4] = target: T2, UGT2B7; assay: Inhibition screening of recombinant UGTs by NAF enantiomers, UGT2B7 (4-MU); format: in vitro ADME; design: purchased BD Gentest; details: recombinant UGT2B7, probe 4-MU, read-out: Inhibition of 4-MU-G formation; for inhibition at 10 μM: 10 μM NAF enantiomer; for inhibition at 100 μM: 100 μM NAF enantiomer
Protocol: (§3) The inhibition screening study was performed by investigating the 12 recombinant UGTs with 10 and 100 μM NAF enantiomer. […] 4-MU, as a non-specific substrate, was added to the other incubated samples. Instead of NAF enantiomers, the same volume of water was added to be the control sample. […] The formation of 4-MU-G and TFP-G produced from the 12 incubation system were analyzed by HPLC. The instrument parameters for the LC were as follows: system, Agilent 1260; Agilent Eclipse Plus C18 (2.1 mm × 50 mm, 1.8 μm, Santa Clara, CA, United States); mobile phase, methanol: 0.1% formic acid in water (0–3 min, 35:65; 3.1–4.5 min, 65:35; 4.6–5 min, 35:65); flow rate, 0.4 mL/min; column temperature, 25°C; and injection volume, 2 μL. The retention times of 4-MU, 4-MU-G, TFP, TFP-G, and MU (IS) were 1.5, 0.5, 2.2, 1.8, and 1.0 min, respectively.

[5] = Kinetics of NAF enantiomer glucuronidation by human liver microsomes; format: in vitro ADME; details: human, human liver microsomes, pH 7.5; NAF glucuronidation by HLM; 2.5–80 μM substrate, 45 min
Protocol: as §1, §2

[6] = test system: human liver microsomes (HLM); assay: as above; format: in vitro ADME
Protocol: as §1, §2

UGT1A1 = target: T3, UGT1A1 (Homo sapiens, UniProt P22309); assay: Inhibition screening of recombinant UGTs by NAF enantiomers, UGT1A1 (4-MU); format: in vitro ADME; details: recombinant UGT1A1, probe 4-MU, 10 μM NAF enantiomer, read-out: Inhibition of 4-MU-G formation
T3 construct: purchased BD Gentest
T3 sequence (P22309 26-533): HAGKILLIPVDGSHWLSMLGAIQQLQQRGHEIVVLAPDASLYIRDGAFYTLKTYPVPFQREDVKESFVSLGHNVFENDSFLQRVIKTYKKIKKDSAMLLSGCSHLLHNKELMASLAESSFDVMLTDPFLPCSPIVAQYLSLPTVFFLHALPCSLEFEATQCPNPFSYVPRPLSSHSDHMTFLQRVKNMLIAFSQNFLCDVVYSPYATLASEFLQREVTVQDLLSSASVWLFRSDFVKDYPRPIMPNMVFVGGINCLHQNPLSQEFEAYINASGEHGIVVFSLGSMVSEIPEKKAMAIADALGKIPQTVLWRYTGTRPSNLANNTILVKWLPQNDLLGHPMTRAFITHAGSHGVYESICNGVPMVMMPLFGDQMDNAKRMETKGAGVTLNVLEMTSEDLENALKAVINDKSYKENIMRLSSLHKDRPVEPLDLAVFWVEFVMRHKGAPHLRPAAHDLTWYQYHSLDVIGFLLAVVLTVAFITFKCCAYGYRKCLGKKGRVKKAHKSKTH
Protocol: as §3

UGT2B7 [7] = target: T2, UGT2B7; assay: biochemical
Protocol: The inhibition of UGT1A9 and UGT2B7 by NAF enantiomer was investigated using the pooled HLM, UGT1A9, and UGT2B7 with concentrations similar to that of the NAF enantiomer. Propofol, which was used as the specific substrate of UGT1A9, was added to the incubation. […] Inhibitor constants (Ki value) were estimated by fitting the expressions for competitive, non-competitive, and mixed inhibition models with Dixon plots and Lineweaver–Burk plots.

Km at 45 min [1]	Glucuronide formation by UGT1A6 (recombinant human UGT1A6)	Kinetics type (UGT2B7 [3])	inhibition at 10 μM (UGT2B7 [4])	inhibition at 100 μM (UGT2B7 [4])	Km at 45 min [5]	inhibition at 10 μM (UGT1A1)	Ki (UGT2B7 [7])	Structure (SMILES)	Kinetics type [2]	Kinetics type [6]
40 µM	No R(+)-NAF-G was detected	substrate inhibition model	> 50%	> 75%	48 µM	> 50%	12.1 ± 2.2 µM	COc1ccccc1N1CCN(C[C@@H](O)COc2cccc3ccccc23)CC1 [R(+)-NAF]	Michaelis–Menten model	Michaelis–Menten model
35 µM	no activity	substrate inhibition model	> 50%	> 75%	19 µM	> 50%	18.5 ± 3.3 µM	COc1ccccc1N1CCN(C[C@H](O)COc2cccc3ccccc23)CC1 [S(-)-NAF]	substrate inhibition model	Michaelis–Menten model
